Key:
[1] = Chemical stability assessed as hydrolysis half life in presence of 80% human plasma; assay type: ADME, cell-free
Acetylcholinesterase = Acetylcholinesterase (Electrophorus electricus, UniProt O42275); experiment: Inhibition of electric eel AChE by Ellman's method
Acetylcholinesterase, sequence (O42275 whole entry): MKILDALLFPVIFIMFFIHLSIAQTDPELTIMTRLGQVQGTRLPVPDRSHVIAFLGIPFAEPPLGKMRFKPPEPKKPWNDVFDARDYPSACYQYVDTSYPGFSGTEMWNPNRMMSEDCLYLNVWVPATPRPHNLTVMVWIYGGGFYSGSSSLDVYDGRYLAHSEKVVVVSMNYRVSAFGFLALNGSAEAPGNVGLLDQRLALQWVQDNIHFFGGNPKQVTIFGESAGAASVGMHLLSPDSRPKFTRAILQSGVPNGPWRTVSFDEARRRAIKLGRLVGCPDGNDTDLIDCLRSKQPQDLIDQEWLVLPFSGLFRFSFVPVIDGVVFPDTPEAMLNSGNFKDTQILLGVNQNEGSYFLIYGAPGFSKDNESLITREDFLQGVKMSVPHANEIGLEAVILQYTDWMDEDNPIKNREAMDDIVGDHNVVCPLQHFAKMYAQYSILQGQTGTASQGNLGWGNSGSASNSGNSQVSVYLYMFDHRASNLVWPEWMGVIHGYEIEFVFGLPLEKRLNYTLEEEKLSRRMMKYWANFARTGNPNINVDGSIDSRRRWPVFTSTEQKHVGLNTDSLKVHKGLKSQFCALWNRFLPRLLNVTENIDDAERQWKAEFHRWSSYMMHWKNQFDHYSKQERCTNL

Molecule `COc1ccc2cc([C@H](C)C(=O)OCc3ccc(OC(=O)OCCC(C)(C)C)cc3)ccc2c1` has a t1/2 [1] of 2.25 h.
With `COc1ccc2cc([C@H](C)C(=O)OCc3ccc(OC(=O)OCC[Si](C)(C)C)cc3)ccc2c1` the t1/2 [1] was 4.22 h.
Work on `CC(C)(C)CCOC(=O)Oc1ccc(COC(=O)Cc2ccccc2Nc2c(Cl)cccc2Cl)cc1` yielded an IC50 (Acetylcholinesterase) of 510 nM and a t1/2 [1] of 5.95 h.
With `CC(C)Cc1ccc(C(C)C(=O)OCc2ccc(OC(=O)OCCC(C)(C)C)cc2)cc1` (centres undefined) the t1/2 [1] was 3.4 h.
In the case of `COc1ccc2c(c1)c(CC(=O)OCc1ccc(OC(=O)OCCC(C)(C)C)cc1)c(C)n2C(=O)c1ccc(Cl)cc1`, the t1/2 [1] is reported as 7.8 h.
`CC(C)(C)CCOC(=O)Cc1ccccc1Nc1c(Cl)cccc1Cl` showed a t1/2 [1] of 1.85 h.
`COc1ccc2cc([C@H](C)C(=O)OCCC(C)(C)C)ccc2c1` showed a t1/2 [1] of 0.633 h.
Molecule `COc1ccc2cc([C@H](C)C(=O)OCC[Si](C)(C)C)ccc2c1` has a t1/2 [1] of 1.05 h.

— ChEMBL document CHEMBL1157889, “Peripheral site acetylcholinesterase inhibitors targeting both inflammation and cholinergic dysfunction” (Bioorg Med Chem Lett, 2010)
